Experimental data reported in patent US9359298B2, “Cajanine structure analogous compound, preparation method and use” (INSTITUTE OF MEDICINAL BIOTECHNOLOGY, CHINESE ACADEMY OF …, priority 2011, dated 2016).
Converted amounts (≈) assume the structure as drawn. Read-outs that look alike come from different tables or passages of the source.

Columns and labels:
Type in all cases: cell-based
HIV-1 III B virus = assay: Anti-HIV activity assay (P24 antigen in MT-4 cells); details: Human immunodeficiency virus 1, MT4, 96 h, read-out: HIV IC50
PC12 cells [1] = assay: Neuroprotective activity assay, rotenone injury to PC12 cells (MTT); details: for viability at 10 µM: Rattus norvegicus, PC-12, 48 h, 10 μM test compound, 4 μM rotenone, 48 h, Control 100.0 ± 8.9, Model 73.2 ± 7.8, read-out: rotenone (surviving PC12 cells, MTT 570 nm)
Procedure: (§1) Discard the original culture media from confluent monolayers of PC12 cells (simulated neuronal cells), add DMEM complete medium with 5% FBS, 5% horse serum gently beat upon the cells with a pipette to completely disperse them, inoculate 100 μl cell suspension at a density of […] per well to 96 hole plates treated with poly-lysine (0.1 mg/ml) in advance, culture for 24h. Divide the experimenting cells into control group, model group and dosing groups. Add complete medium to the control group. Model groups includes rotenone group and serum-deprived group, add rotenone to the corresponding modules with a final concentration of 4 μM rotenone to take effect on the cells for 48 h, add serum-deprived groups with serum-free DMEM medium to take effect on the cells for 48 h. Dosing groups also includes two groups, one using rotenone module as model, another using serum-deprived module as model, and both add in 10 μM test compounds during modeling. 48h later, add 10 μl 5 mg/ml MTT, subsequently discard the supernatant 4h later and add in 150 μl DMSO, measure 570 nm absorbance to represent the numbers of surviving cells.

HCV = assay: Anti-hepatitis C virus (HCV) activity assay (HCV RNA in Huh7.5 cells); details: Hepatitis C virus, Huh7.5, 72 h, Huh7.5 cells, 72 h, HCV RNA by RT-PCR, Reed-Muench; read-out: HCV EC50
Procedure: Inoculate Huh7.5 cells into 96-well plates to a density of 3×10^4 cells/cm^2, culture for 24h, infect the cells with 45 IU/cell HCV supernatant, meanwhile, add drug solutions or solvent control for treatment.

[2] = system: Influenza A virus (hanfang359/95); assay: Determination of anti-influenza virus activity (CPE in MDCK cells); details: for IC50: Influenza A virus, MDCK, 36 h; for anti-influenza virus activities compared with the lead compound cajanine: statement in words
PC12 cells [3] = assay: Neuroprotective activity assay, serum-deprived injury to PC12 cells (MTT); details: for viability at 10 µM: Rattus norvegicus, PC-12, 48 h, 10 μM test compound, 48 h, Control 100.0 ± 9.2, Model 69.3 ± 4.1, read-out: serum-deprived (surviving PC12 cells, MTT 570 nm)
Procedure: as §1

Coxsackie virus B6 = assay: Coxsackie virus activity assay (CPE in Vero cells); details: Vero, read-out: COX-B6 IC50, Vero cells, about 100TCID50, CPE, Reed-Muench
[4] = MT-4 cells, HIV-1 III B 100TCID50, 96 h, P24 antigen

| SMILES | IC50 (HIV-1 III B virus; [4]) | viability at 10 µM (PC12 cells [1]) | EC50 (HCV) | IC50 [2] | anti-influenza virus activities compared with the lead compound cajanine [2] | viability at 10 µM (PC12 cells [3]) | IC50 (Coxsackie virus B6) | protective effect on rotenone injury to PC12 cells (PC12 cells [1]; statement in words) | protective effect on serum-deprived injury to PC12 cells (PC12 cells [3]; statement in words) | IC50 (HIV-1 III B virus) |
| --- | --- | --- | --- | --- | --- | --- | --- | --- | --- | --- |
| COc1ccnc(/C=C/c2cc(O)c(CC=C(C)C)c(OC)c2)c1 [Compound 10z, 2-isopentenyl-3-methoxy-5-[(E)-2-(4-methoxypyrid-2-yl)ethenyl]phenol] | 2.83 µg/mL (≈ 8.7 µM) | 87 ± 5.1% | 1.19 µg/mL (≈ 3.66 µM) | 0.32 µg/mL (≈ 0.983 µM) | significantly stronger than the lead compound cajanine | 84.6 ± 3.9% | 0.84 µg/mL (≈ 2.58 µM) | – | – | – |
| CC/C=C/c1cc(OC)c(CC=C(C)C)c(O)c1C(=O)O [Compound 1h, 2-hydroxy-3-isopentenyl-4-methoxy-6-[(E)-buten-1-yl]benzoic acid] | 2.39 µg/mL (≈ 8.23 µM) | 70 ± 7.1% | 2.6 µg/mL (≈ 8.95 µM) | 1.92 µg/mL (≈ 6.61 µM) | – | 43.8 ± 8.8% | 15.3 µg/mL (≈ 52.7 µM) | – | – | – |
| COc1cc(/C=C/C2CCCCC2)cc(O)c1CC=C(C)C [Compound 10p, 2-isopentenyl-3-methoxy-5-[(E)-2-cyclohexylvinyl]phenol] | 7.19 µg/mL (≈ 23.9 µM) | 86.7 ± 9.1% | 2.95 µg/mL (≈ 9.82 µM) | 2.65 µg/mL (≈ 8.82 µM) | – | 84.6 ± 2.7% | > 6.19 µg/mL | the strongest activities | the strongest activities | – |
| COC(=O)c1c(/C=C(\C)c2ccccc2)cc(OC)c(CC=C(C)C)c1O [Compound 8i, methyl 2-hydroxy-3-isopentenyl-4-methoxy-6-[(E)-2-phenylpropen-1-yl]-benzoate] | 3.8 µg/mL (≈ 10.4 µM) | 69.4 ± 2.6% | 3.47 µg/mL (≈ 9.47 µM) | > 2.47 µg/mL | – | 46.4 ± 16.6% | 6.89 µg/mL (≈ 18.8 µM) | – | – | – |
| COc1cc(/C=C/c2ccccc2)c(C(=O)O)c(OC(=O)CN)c1CC=C(C)C [Compound 24b, 2-Aminoacetoxy-3-isopentenyl-4-methoxy-6-[(E)-styryl]benzoic acid] | 2.01 µg/mL (≈ 5.08 µM) | 88.3 ± 5.2% | 1.68 µg/mL (≈ 4.25 µM) | 4.25 µg/mL (≈ 10.7 µM) | – | 89.7 ± 5.6% | 1.24 µg/mL (≈ 3.14 µM) | – | – | – |
| C=CCc1c(OC)cc(/C=C/c2ccccc2)c(C(=O)OC)c1O [8a′, methyl 2-hydroxy-3-allyl-4-methoxy-6-[(E)-styryl]benzoate] | – | 88 ± 6.9% | – | 0.15 µg/mL (≈ 0.462 µM) | – | 87.9 ± 2.5% | 1.64 µg/mL (≈ 5.06 µM) | – | – | – |
| C=CCc1c(O)cc(/C=C/c2ccccc2)cc1OC [10h′, 2-allyl-3-methoxy-5-[(E)-styryl]phenol] | – | 86.7 ± 4.5% | – | 0.09 µg/mL (≈ 0.338 µM) | – | 87.6 ± 4.3% | 0.54 µg/mL (≈ 2.03 µM) | – | – | – |
| COc1cc(/C=C/c2ccccc2)cc(OCC2CNCCN2)c1CC=C(C)C (stereo not shown) [Compound 26f, 2-isopentenyl-3-(piperazin-2-yl)methoxy-5-[(E)-styryl]anisole] | 1.61 µg/mL (≈ 4.1 µM) | – | 1.39 µg/mL (≈ 3.54 µM) | 0.68 µg/mL (≈ 1.73 µM) | significantly stronger than the lead compound cajanine | – | 0.98 µg/mL (≈ 2.5 µM) | – | – | – |
| COc1cc(/C=C/c2ccccc2)cc(OC(=O)CN)c1CC=C(C)C [Compound 24c, 2-isopentenyl-3-aminoacetoxy-5-[(E)styryl]anisole] | 2.78 µg/mL (≈ 7.91 µM) | – | 0.94 µg/mL (≈ 2.67 µM) | 1.24 µg/mL (≈ 3.53 µM) | – | – | 0.98 µg/mL (≈ 2.79 µM) | – | – | – |
| COC(=O)c1c(/C=C/c2ccccc2)cc(OC)c(CC=C(C)C)c1OC(=O)CN(C)C [Compound 24m, 2-(N,N-dimethylacetyloxy)-3-isopentenyl-4-methoxy-6-[(E)-styryl]benzoate] | 2.6 µg/mL (≈ 5.94 µM) | – | 0.8 µg/mL (≈ 1.83 µM) | 6.52 µg/mL (≈ 14.9 µM) | – | – | 3.46 µg/mL (≈ 7.91 µM) | – | – | – |
| COC(=O)c1c(/C=C/c2ccccc2)cc(OC)c(CC=C(C)C)c1OCC1CNCCN1 (stereo not shown) [Compound 26d, methyl 2-(piperazin-2-yl)methoxy-3-isopentenyl-4-methoxy-6-[(E)-styryl]benzoate] | – | – | 1.53 µg/mL (≈ 3.4 µM) | 1.36 µg/mL (≈ 3.02 µM) | – | – | 2.75 µg/mL (≈ 6.1 µM) | – | – | 1.36 µg/mL (≈ 3.02 µM) |
